From ChEMBL document CHEMBL4190297, “Cafestol, a Bioactive Substance in Coffee, Has Antidiabetic Properties in KKAy Mice” (J Nat Prod, 2017)
Calls of active or inactive are those of the source. The rule behind the calls is not given here.

What was measured:
Mus musculus [1] = organism: Mus musculus; experiment: Antidiabetic activity in KK-Ay diabetic mouse model assessed as increase in insulin levels in plasma at 0.4 mg added daily to normal chow pellets for 10 weeks by radioimmunoassay; assay type: functional, organism-based
Mus musculus [2] = organism: Mus musculus; experiment: Antidiabetic activity in KK-Ay diabetic mouse model assessed as decrease in GCRG mRNA expression levels in muscle tissue at 0.4 mg added daily to normal chow pellets for 10 weeks by qRT-PCR analysis; assay type: functional, organism-based
Mus musculus [3] = organism: Mus musculus; experiment: Effect on Adipor1 mRNA expression levels in adipose tissue of KK-Ay diabetic mouse model at 0.4 to 1.1 mg added daily to normal chow pellets for 10 weeks by qRT-PCR analysis; assay type: functional, organism-based
Mus musculus [4] = organism: Mus musculus; experiment: Effect on Hprt1 mRNA expression levels in muscle of KK-Ay diabetic mouse model at 0.4 to 1.1 mg added daily to normal chow pellets for 10 weeks by qRT-PCR analysis; assay type: functional, organism-based
Mus musculus [5] = organism: Mus musculus; experiment: Effect on GYS2 mRNA expression levels in liver of KK-Ay diabetic mouse model at 0.4 to 1.1 mg added daily to normal chow pellets for 10 weeks by qRT-PCR analysis; assay type: functional, organism-based
Mus musculus [6] = organism: Mus musculus; experiment: Effect on Abca1 mRNA expression levels in adipose tissue of KK-Ay diabetic mouse model at 0.4 to 1.1 mg added daily to normal chow pellets for 10 weeks by qRT-PCR analysis; assay type: functional, organism-based
Mus musculus [7] = organism: Mus musculus; experiment: Effect on SOD2 mRNA expression levels in muscle of KK-Ay diabetic mouse model at 0.4 to 1.1 mg added daily to normal chow pellets for 10 weeks by qRT-PCR analysis; assay type: functional, organism-based
Mus musculus [8] = organism: Mus musculus; experiment: Effect on Gcgr mRNA expression levels in muscle of KK-Ay diabetic mouse model at 0.4 to 1.1 mg added daily to normal chow pellets for 10 weeks by qRT-PCR analysis; assay type: functional, organism-based
Mus musculus [9] = organism: Mus musculus; experiment: Effect on FAS mRNA expression levels in muscle of KK-Ay diabetic mouse model at 0.4 to 1.1 mg added daily to normal chow pellets for 10 weeks by qRT-PCR analysis; assay type: functional, organism-based
Mus musculus [10] = organism: Mus musculus; experiment: Effect on Sirt1 mRNA expression levels in adipose tissue of KK-Ay diabetic mouse model at 0.4 to 1.1 mg added daily to normal chow pellets for 10 weeks by qRT-PCR analysis; assay type: functional, organism-based
Mus musculus [11] = organism: Mus musculus; experiment: Effect on SOD2 mRNA expression levels in liver of KK-Ay diabetic mouse model at 0.4 to 1.1 mg added daily to normal chow pellets for 10 weeks by qRT-PCR analysis; assay type: functional, organism-based
Mus musculus [12] = organism: Mus musculus; experiment: Effect on LXRalpha mRNA expression levels in adipose tissue of KK-Ay diabetic mouse model at 0.4 to 1.1 mg added daily to normal chow pellets for 10 weeks by qRT-PCR analysis; assay type: functional, organism-based
Mus musculus [13] = organism: Mus musculus; experiment: Effect on Gcgr mRNA expression levels in adipose tissue of KK-Ay diabetic mouse model at 0.4 to 1.1 mg added daily to normal chow pellets for 10 weeks by qRT-PCR analysis; assay type: functional, organism-based
Mus musculus [14] = organism: Mus musculus; experiment: Effect on GLUT2 mRNA expression levels in liver of KK-Ay diabetic mouse model at 0.4 to 1.1 mg added daily to normal chow pellets for 10 weeks by qRT-PCR analysis; assay type: functional, organism-based
Mus musculus [15] = organism: Mus musculus; experiment: Effect on Mtor mRNA expression levels in liver of KK-Ay diabetic mouse model at 0.4 to 1.1 mg added daily to normal chow pellets for 10 weeks by qRT-PCR analysis; assay type: functional, organism-based
Mus musculus [16] = organism: Mus musculus; experiment: Effect on Lipc mRNA expression levels in adipose tissue of KK-Ay diabetic mouse model at 0.4 to 1.1 mg added daily to normal chow pellets for 10 weeks by qRT-PCR analysis; assay type: functional, organism-based
Mus musculus [17] = organism: Mus musculus; experiment: Effect on SOD2 mRNA expression levels in adipose tissue of KK-Ay diabetic mouse model at 0.4 to 1.1 mg added daily to normal chow pellets for 10 weeks by qRT-PCR analysis; assay type: functional, organism-based
Mus musculus [18] = organism: Mus musculus; experiment: Effect on Acaca mRNA expression levels in liver of KK-Ay diabetic mouse model at 0.4 to 1.1 mg added daily to normal chow pellets for 10 weeks by qRT-PCR analysis; assay type: functional, organism-based
Mus musculus [19] = organism: Mus musculus; experiment: Effect on AMPKalpha2 mRNA expression levels in muscle of KK-Ay diabetic mouse model at 0.4 to 1.1 mg added daily to normal chow pellets for 10 weeks by qRT-PCR analysis; assay type: functional, organism-based
Mus musculus [20] = organism: Mus musculus; experiment: Induction of […] glucose-stimulated insulin secretion in pancreatic islets isolated from KK-Ay diabetic mouse model at 1.1 mg added daily to normal chow pellets for 10 weeks followed by glucose stimulation of isolated pancreatic islets for 1 hr by radioimmunoassay relative to control; assay type: functional
Mus musculus [21] = organism: Mus musculus; experiment: Induction of 3.3 mM glucose-stimulated insulin secretion in pancreatic islets isolated from KK-Ay diabetic mouse model at 0.4 mg added daily to normal chow pellets for 10 weeks followed by glucose stimulation of isolated pancreatic islets for 1 hr by radioimmunoassay relative to control; assay type: functional
Mus musculus [22] = organism: Mus musculus; experiment: Effect on PPARgamma mRNA expression levels in muscle of KK-Ay diabetic mouse model at 0.4 to 1.1 mg added daily to normal chow pellets for 10 weeks by qRT-PCR analysis; assay type: functional, organism-based
Mus musculus [23] = organism: Mus musculus; experiment: Toxicity in KK-Ay diabetic mouse model assessed as effect on average 24 hrs food consumption by measured food consumption at 0.4 mg added daily to normal chow pellets for 10 weeks (reference value: 4.7 +/- 0.2 g); assay type: organism-based; settings: in vivo, po
Mus musculus [24] = organism: Mus musculus; experiment: Effect on LXRalpha mRNA expression levels in liver of KK-Ay diabetic mouse model at 0.4 to 1.1 mg added daily to normal chow pellets for 10 weeks by qRT-PCR analysis; assay type: functional, organism-based
Mus musculus [25] = organism: Mus musculus; experiment: Effect on G6PD mRNA expression levels in liver of KK-Ay diabetic mouse model at 0.4 to 1.1 mg added daily to normal chow pellets for 10 weeks by qRT-PCR analysis; assay type: functional, organism-based
Mus musculus [26] = organism: Mus musculus; experiment: Effect on Gcgr mRNA expression levels in liver of KK-Ay diabetic mouse model at 0.4 to 1.1 mg added daily to normal chow pellets for 10 weeks by qRT-PCR analysis; assay type: functional, organism-based
Mus musculus [27] = organism: Mus musculus; experiment: Effect on PPARalpha mRNA expression levels in muscle of KK-Ay diabetic mouse model at 0.4 to 1.1 mg added daily to normal chow pellets for 10 weeks by qRT-PCR analysis; assay type: functional, organism-based
Mus musculus [28] = organism: Mus musculus; experiment: Toxicity in KK-Ay diabetic mouse model assessed as effect on body weight at 1.1 mg added daily to normal chow pellets for 4 weeks; assay type: organism-based; settings: in vivo, po, 672 h
Mus musculus [29] = organism: Mus musculus; experiment: Effect on JNK1 mRNA expression levels in liver of KK-Ay diabetic mouse model at 0.4 to 1.1 mg added daily to normal chow pellets for 10 weeks by qRT-PCR analysis; assay type: functional, organism-based
Mus musculus [30] = organism: Mus musculus; experiment: Effect on CD36 mRNA expression levels in liver of KK-Ay diabetic mouse model at 0.4 to 1.1 mg added daily to normal chow pellets for 10 weeks by qRT-PCR analysis; assay type: functional, organism-based
Mus musculus [31] = organism: Mus musculus; experiment: Effect on AMPKalpha2 mRNA expression levels in adipose tissue of KK-Ay diabetic mouse model at 0.4 to 1.1 mg added daily to normal chow pellets for 10 weeks by qRT-PCR analysis; assay type: functional, organism-based
Mus musculus [32] = organism: Mus musculus; experiment: Effect on InsR mRNA expression levels in muscle of KK-Ay diabetic mouse model at 0.4 to 1.1 mg added daily to normal chow pellets for 10 weeks by qRT-PCR analysis; assay type: functional, organism-based

Question: For C[C@@]12CCc3occc3[C@H]1CC[C@@]13C[C@H](CC[C@H]12)[C@@](O)(CO)C3, which Activity (Mus musculus [1]) is on record?
Answer: inactive

Question: What about the Activity (Mus musculus [2]) of the same compound?
Answer: Active

Question: What about the Activity (Mus musculus [3]) of the same compound?
Answer: inactive

Question: And the Activity (Mus musculus [4])?
Answer: inactive

Question: What about the Activity (Mus musculus [5]) of the same compound?
Answer: inactive

Question: What about the Activity (Mus musculus [6]) of the same compound?
Answer: inactive

Question: What about the Activity (Mus musculus [7]) of the same compound?
Answer: inactive

Question: What about the Activity (Mus musculus [8]) of the same compound?
Answer: inactive

Question: What about the Activity (Mus musculus [9]) of the same compound?
Answer: inactive

Question: And the Activity (Mus musculus [10])?
Answer: inactive

Question: And the Activity (Mus musculus [11])?
Answer: inactive

Question: What about the Activity (Mus musculus [12]) of the same compound?
Answer: inactive

Question: And the Activity (Mus musculus [13])?
Answer: inactive

Question: What about the Activity (Mus musculus [14]) of the same compound?
Answer: inactive

Question: And the Activity (Mus musculus [15])?
Answer: inactive

Question: What about the Activity (Mus musculus [16]) of the same compound?
Answer: inactive

Question: And the Activity (Mus musculus [17])?
Answer: inactive

Question: And the Activity (Mus musculus [18])?
Answer: inactive

Question: What about the Activity (Mus musculus [19]) of the same compound?
Answer: inactive

Question: And the Activity (Mus musculus [20])?
Answer: 75%

Question: What about the Activity (Mus musculus [21]) of the same compound?
Answer: 67%

Question: What about the Activity (Mus musculus [22]) of the same compound?
Answer: inactive

Question: And the Activity (Mus musculus [23])?
Answer: 5.4 g

Question: And the Activity (Mus musculus [24])?
Answer: inactive

Question: What about the Activity (Mus musculus [25]) of the same compound?
Answer: inactive

Question: And the Activity (Mus musculus [26])?
Answer: inactive

Question: And the Activity (Mus musculus [27])?
Answer: inactive

Question: And the Activity (Mus musculus [28])?
Answer: Non-Toxic

Question: What about the Activity (Mus musculus [29]) of the same compound?
Answer: inactive

Question: And the Activity (Mus musculus [30])?
Answer: inactive

Question: What about the Activity (Mus musculus [31]) of the same compound?
Answer: inactive

Question: And the Activity (Mus musculus [32])?
Answer: inactive
